Test results: patent US9255100B2 (BAYER INTELLECTUAL PROPERTY GMBH, priority 2010, dated 2016)

Each molecule was assayed against T1, N-terminally GST-tagged human full length recombinant Mps-1 kinase (Homo sapiens, UniProt P33981) (assay: Mps-1 kinase assay (TR-FRET)). Conditions: Mps1 IC50 [nM], 10 μM ATP, 1 μM peptide substrate, 60 min at 22° C.
T1 construct: N-terminally GST-tagged human full length recombinant Mps-1 kinase; purchased Invitrogen, Karslruhe, Germany PV4071
T1 sequence (P33981 1-857): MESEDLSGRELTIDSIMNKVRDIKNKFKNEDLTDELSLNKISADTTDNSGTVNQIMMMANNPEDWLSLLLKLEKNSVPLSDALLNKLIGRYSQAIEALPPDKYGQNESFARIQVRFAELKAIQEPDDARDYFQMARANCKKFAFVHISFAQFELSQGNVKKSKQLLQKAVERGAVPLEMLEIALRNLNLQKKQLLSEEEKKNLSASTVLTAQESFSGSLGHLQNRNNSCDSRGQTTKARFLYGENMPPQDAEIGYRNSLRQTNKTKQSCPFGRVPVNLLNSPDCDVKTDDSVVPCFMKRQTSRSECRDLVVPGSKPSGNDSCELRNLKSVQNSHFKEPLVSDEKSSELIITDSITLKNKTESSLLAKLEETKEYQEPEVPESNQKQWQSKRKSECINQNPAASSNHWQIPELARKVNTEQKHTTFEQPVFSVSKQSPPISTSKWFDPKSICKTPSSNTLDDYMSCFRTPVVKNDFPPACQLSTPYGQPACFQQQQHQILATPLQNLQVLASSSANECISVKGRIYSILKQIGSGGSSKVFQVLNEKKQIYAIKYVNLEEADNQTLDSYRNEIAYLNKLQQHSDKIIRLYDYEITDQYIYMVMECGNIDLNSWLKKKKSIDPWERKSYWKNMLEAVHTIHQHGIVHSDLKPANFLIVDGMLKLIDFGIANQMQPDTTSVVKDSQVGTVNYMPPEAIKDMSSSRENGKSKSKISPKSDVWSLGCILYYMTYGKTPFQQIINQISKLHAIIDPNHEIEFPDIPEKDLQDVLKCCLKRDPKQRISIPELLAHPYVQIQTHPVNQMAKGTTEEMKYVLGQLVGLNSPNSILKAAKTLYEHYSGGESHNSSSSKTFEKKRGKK
Type: biochemical
Summary of the method: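 Inhibition of Mps-1 (N-terminal GST fusion, full length) toward a biotinylated peptide is read as Eu-to-XLent TR-FRET. Enzyme level, around 1 nM final, follows lot activity.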

Row | IC50 [nM] | Compound
1 | 1.2 | Cc1cc(-c2cnc3c(NCC(C)(C)O)cc(-c4ccc(F)cc4)nn23)ccc1C(=O)NC1CC1 [Example 7, N-cyclopropyl-4-{6-(4-fluorophenyl)-8-[(2-hydroxy-2-methylpropyl)amino]imidazo[1,2-b]pyridazin-3-yl}-2-methylbenzamide]
2 | 0.1 | Cc1cc(-c2cnc3c(NCCC(F)(F)F)cc(Nc4ccccc4F)nn23)ccc1C(=O)NC1CC1 [Example 369, N-cyclopropyl-4-{6-[(2-fluorophenyl)amino]-8-[(3,3,3-trifluoropropyl)amino]imidazo[1,2-b]pyridazin-3-yl}-2-methylbenzamide]
3 | 0.2 | Cc1cc(-c2cnc3c(NCC4CCS(=O)(=O)CC4)cc(Sc4cccc(F)c4)nn23)ccc1C(=O)NC1CC1 [Example 301, N-cyclopropyl-4-(8-{[(1,1-dioxidotetrahydro-2H-thiopyran-4-yl)methyl]amino}-6-[(3-fluorophenyl)sulfanyl]imidazo[1,2-b]pyridazin-3-yl)-2-methylbenzamide]
4 | 0.2 | Cc1cc(F)cc(Nc2cc(NCC(C)(C)O)c3ncc(-c4ccc(C(=O)NC5CC5)c(C)c4)n3n2)c1 [Example 394, N-cyclopropyl-4-{6-[(3-fluoro-5-methylphenyl)amino]-8-[(2-hydroxy-2-methylpropyl)amino]imidazo[1,2-b]pyridazin-3-yl}-2-methylbenzamide]
5 | 0.8 | CNc1ccccc1Oc1cc(NCCN2CCOCC2)c2ncc(-c3ccc(C(=O)NC4CC4)c(C)c3)n2n1 [Example 538, N-cyclopropyl-2-methyl-4-(6-[2-(methylamino)phenoxy]-8-{[2-(morpholin-4-yl)ethyl]amino}imidazo[1,2-b]pyridazin-3-yl)benzamide]
6 | 0.3 | Cc1cc(-c2cnc3c(NCC(C)(C)O)cc(Oc4cccc(C#N)c4)nn23)ccc1C(=O)NC1CC1 [Example 82, 4-{6-(3-Cyanophenoxy)-8-[(2-hydroxy-2-methylpropyl)amino]imidazo[1,2-b]pyridazin-3-yl}-N-cyclopropyl-2-methylbenzamide]
7 | 6.9 | CNC(=O)c1ccc(-c2cnc3c(NCCOC)cc(Oc4ccccc4C)nn23)cc1C [Example 583, 4-{8-[(2-methoxyethyl)amino]-6-(2-methylphenoxy)imidazo[1,2-b]pyridazin-3-yl}-N,2-dimethylbenzamide]
8 | 3.2 | Cc1cc(-c2cnc3c(NCC(C)C)cc(-c4ccn[nH]4)nn23)ccc1C(=O)NC1CC1 [Example 195, N-cyclopropyl-2-methyl-4-{8-[(2-methylpropyl)amino]-6-(1H-pyrazol-5-yl)imidazo[1,2-b]pyridazin-3-yl}benzamide]
9 | 0.2 | Cc1cc(-c2cnc3c(NCCN4CCCCC4)cc(Oc4cccc(F)c4)nn23)ccc1C(=O)NC1CC1 [Example 499, N-cyclopropyl-4-[6-(3-fluoro-phenoxy)-8-{[2-(piperidin-1-yl)ethyl]amino}imidazo[1,2-b]pyridazin-3-yl]-2-methyl-benzamide]
10 | 58 | COc1cc(C(=O)NC2CC2)ccc1-c1cnc2c(NCC(C)(C)O)cc(Sc3ccccc3)nn12 [Example 51A, N-cyclopropyl-4-{8-[(2-hydroxy-2-methylpropyl)amino]-6-(phenylsulfanyl)imidazo[1,2-b]pyridazin-3-yl}-3-methoxybenzamide]
11 | < 1 | CCNC(=O)c1ccc(-c2cnc3c(NCCC(F)(F)F)cc(Oc4cc(F)ccc4C)nn23)cc1C [Example 603, N-ethyl-4-{6-(5-fluoro-2-methylphenoxy)-8-[(3,3,3-trifluoropropyl)a-mino]imidazo[1,2-b]pyridazin-3-yl}-2-methylbenzamide]
12 | 0.6 | Cc1cc(-c2cnc3c(NCC(C)(C)O)cc(Nc4ccc(F)cc4F)nn23)ccc1C(=O)NC1CC1 [Example 356, N-cyclopropyl-4-{6-[(2,4-difluorophenyl)amino]-8-[(2-hydroxy-2-methylpropyl)amino]imidazo[1,2-b]pyridazin-3-yl}-2-methylbenzamide]
13 | 0.4 | Cc1cc(-c2cnc3c(NCC(C)(C)O)cc(Nc4cccc(O)c4)nn23)ccc1C(=O)NC1CC1 [Example 446, N-cyclopropyl-4-{8-[(2-hydroxy-2-methylpropyl)amino]-6-[(3-hydroxyphenyl)amino]imidazo[1,2-b]pyridazin-3-yl}-2-methylbenzamide]
14 | 2.7 | CC(C)CNc1cc(-c2cccc(F)c2)nn2c(-c3ccc(C(=O)NC4CC4)cc3)cnc12 [Example 128, N-cyclopropyl-4-{6-(3-fluorophenyl)-8-[(2-methylpropyl)amino]imidazo[1,2-b]pyridazin-3-yl}benzamide]
15 | 0.3 | CNC(=O)c1ccc(-c2cnc3c(NCCC(F)(F)F)cc(Oc4ccc(Cl)cc4)nn23)cc1C [Example 558, 4-{6-(4-chlorophenoxy)-8-[(3,3,3-trifluoropropyl)amino]imidazo[1,2-b]pyridazin-3-yl}-N, 2-dimethylbenzamide]
16 | 327 | CNC(=O)c1ccc(-c2cnc3c(NCC(C)C)cc(Cl)nn23)cc1Cl [Example 180, 2-Chloro-4-{6-chloro-8-[(2-methylpropyl)amino]imidazo[1,2-b]pyridazin-3-yl}-N-methylbenzamide]
17 | 3 | Cc1cc(-c2cnc3c(NCC4CCOC4)cc(-c4ccccc4CO)nn23)ccc1C(=O)NC1CC1 (racemic) [Example 345, (RS)-N-cyclopropyl-4-{6-[2-(hydroxy-methyl)phenyl]-8-[(tetrahydro-furan-3-ylmethyl)amino]imidazo [1,2-b]pyridazin-3-yl}-2-methyl-benzamide]
18 | 0.2 | CC(=O)NCCNc1cc(Oc2cccc(F)c2)nn2c(-c3ccc(C(=O)NC4CC4)c(C)c3)cnc12 [Example 504, 4-[8-{[2-(acetylamino)ethyl]amino}-6-(3-fluorophenoxy)imidazo[1,2-b]pyridazin-3-yl]-N-cyclopropyl-2-methyl-benzamide]
19 | 9.4 | Cc1cc(-c2cnc3c(NCCC(F)(F)F)cc(Oc4cccc(F)c4)nn23)ccc1C(=O)NCC(F)(F)C(F)(F)F [Example 555, 4-{6-(3-fluorophenoxy)-8-[(3,3,3-trifluoropropyl)amino]imidazo[1,2-b]pyridazin-3-yl}-2-methyl-N-(2,2,3,3,3-pentafluoropropyl)benzamide]
20 | 52.3 | NS(=O)(=O)CCNc1cc(Cl)nn2c(-c3ccc(C(=O)NC4CC4)cc3)cnc12 [Example 98, 4-{6-Chloro-8-[(2-sulfamoylethyl)amino]imidazo[1,2-b]pyridazin-3-yl}-N-cyclopropylbenzamide]
21 | 6.7 | Cc1cc(-c2cnc3c(NCC(C)(C)O)cc(Oc4ccn[nH]4)nn23)ccc1C(=O)NC1CC1 [Example 414, N-cyclopropyl-4-{8-[(2-hydroxy-2-methylpropyl)amino]-6-(1H-pyrazol-5-yloxy)imidazo[1,2-b]pyridazin-3-yl}-2-methylbenzamide]
22 | 0.2 | Cc1cc(-c2cnc3c(NCCC(F)(F)F)cc(Nc4ccc(CCO)cc4)nn23)ccc1C(=O)NC1CC1 [Example 427, N-cyclopropyl-4-(6-{[4-(2-hydroxyethyl)phenyl]amino}-8-[(3,3,3-trifluoropropyl)amino]imidazo[1,2-b]pyridazin-3-yl)-2-methylbenzamide]
23 | 0.3 | Cc1cc(-c2cnc3c(NCCC(F)(F)F)cc(Nc4c(O)cccc4F)nn23)ccc1C(=O)NC1CC1 [Example 478, N-cyclopropyl-4-{6-[(2-fluoro-6-hydroxyphenyl)amino]-8-[(3,3,3-tri-fluoropropyl)amino]imidazo[1,2-b]pyridazin-3-yl}-2-methylbenzamide]
24 | 3.2 | COc1cc(C(=O)NC2CC2)ccc1-c1cnc2c(NCCC(F)(F)F)cc(-c3ccc(F)cc3)nn12 [Example 52, N-cyclopropyl-4-{6-(4-fluorophenyl)-8-[(3,3,3-trifluoropropyl)amino]imidazo[1,2-b]pyridazin-3-yl}-3-methoxybenzamide]
25 | 1.2 | CC(C)(O)CNc1cc(Sc2ccccc2)nn2c(-c3ccc(C(=O)NC4CC4)cc3O)cnc12 [Example 51B, N-cyclopropyl-3-hydroxy-4-{8-[(2-hydroxy-2-methylpropyl)amino]-6-(phenylsulfanyl)imidazo[1,2-b]pyridazin-3-yl}benzamide]
26 | 3.8 | CNC(=O)c1ccc(-c2cnc3c(NCCOC)cc(Oc4ccc(F)c(F)c4)nn23)cc1C [Example 582, 4-{6-(3,4-difluorophenoxy)-8-[(2-methoxyethyl)a-mino]imidazo[1,2-b]pyridazin-3-yl}-N,2-dimethylbenzamide]
27 | 0.2 | Cc1cc(-c2cnc3c(NCCC(F)(F)F)cc(Nc4ccc(Cl)cc4F)nn23)ccc1C(=O)NC1CC1 [Example 376, 4-{6-[(4-chloro-2-fluorophenyl)amino]-8-[(3,3,3-trifluoropropyl)amino]imidazo[1,2-b]pyridazin-3-yl}-N-cyclopropyl-2-methylbenzamide]
